≈ marks a conversion by molar mass, not a printed value. Calls of active or inactive are those of the source. The calls are words filed in the database; no cut-off is given here.
Key:
[1] = biological target: T1, Cytochrome P450 3A4 (Homo sapiens, UniProt P08684)
[2] = in vitro; details: human, human liver microsomes
[3] = system: LoVo; assay: cells; details: Homo sapiens
[4] = biological target: Cytochrome P450 2C9 (Homo sapiens, UniProt P11712)
[5] = organism: Mus musculus; details: CD-1, dose 30-50 mg/kg, route po, time 4.0 hrs
[6] = biological target: Phosphatidylinositol 3-kinase catalytic subunit type 3 (Homo sapiens, UniProt Q8NEB9)
[7] = biological target: CYP3A4 (Homo sapiens, UniProt P08684); assay: in vitro; details: human liver microsomes, probe midazolam
[8] = in vivo; details: CD-1, mouse, plasma, iv, 1 mg/kg
[9] = system: Granta-519; assay: cells; details: Homo sapiens
[10] = in vivo; details: Sprague-Dawley, rat, plasma, iv, 1 mg/kg
[11] = biological target: T2, Serine/threonine-protein kinase mTOR (Homo sapiens, UniProt P42345)
[12] = physchem; details: aqueous buffer, pH 7.4
[13] = in vitro; details: cynomolgus monkey, hepatocytes
[14] = physchem; details: octanol/phosphate buffer, pH 7.4
[15] = in vivo; details: CD-1, mouse, po, 30 mg/kg
[16] = biological target: T1, Cytochrome P450 3A4; remark: listed apart in the source
[17] = physchem; details: Fed State Simulated Intestinal Fluid
[18] = in vitro; details: rat, plasma
[19] = biological target: T2, Serine/threonine-protein kinase mTOR; remark: listed apart in the source
[20] = system: LoVo; assay: animal or person; details: Mus musculus, po, 480 h, read-out: TGI
[21] = in vivo; details: CD-1, mouse, iv, 1 mg/kg
[22] = in vivo; details: Sprague-Dawley, rat, iv, 1 mg/kg
[23] = in vitro; details: dog, plasma
[24] = in vivo; details: CD-1, mouse, po, 10 mg/kg
[25] = in vivo; details: CD-1, mouse, po, 10 mg/kg; remark: listed apart in the source
[26] = in vivo; details: beagle, dog, iv, 1 mg/kg
[27] = in vitro; details: human, hepatocytes
[28] = in vivo; details: Sprague-Dawley, rat, po, 10 mg/kg
[29] = in vivo; details: beagle, dog, iv, 1 mg/kg; remark: listed apart in the source
[30] = biological target: Cytochrome P450 2D6 (Homo sapiens, UniProt P10635)
[31] = physchem; details: Simulated Gastric Fluid
[32] = biological target: T3, Cytochrome P450 1A2 (Homo sapiens, UniProt P05177)
T3 sequence (P05177 whole entry): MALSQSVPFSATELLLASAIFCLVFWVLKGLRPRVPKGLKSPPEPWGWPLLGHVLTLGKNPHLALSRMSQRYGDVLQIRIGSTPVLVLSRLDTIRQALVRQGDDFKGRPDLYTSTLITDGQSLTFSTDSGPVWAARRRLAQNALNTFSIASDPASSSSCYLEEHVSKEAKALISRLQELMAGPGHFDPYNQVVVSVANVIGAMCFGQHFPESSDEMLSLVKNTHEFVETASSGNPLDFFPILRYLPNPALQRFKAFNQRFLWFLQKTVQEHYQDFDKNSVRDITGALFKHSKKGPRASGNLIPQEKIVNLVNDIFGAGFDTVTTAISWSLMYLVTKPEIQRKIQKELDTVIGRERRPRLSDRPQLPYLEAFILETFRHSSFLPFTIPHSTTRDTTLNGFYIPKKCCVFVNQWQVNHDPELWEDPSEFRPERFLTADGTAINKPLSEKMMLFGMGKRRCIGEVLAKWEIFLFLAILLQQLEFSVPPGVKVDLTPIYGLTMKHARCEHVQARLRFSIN

[33] = in vivo; details: Beagle, dog, po, 10 mg/kg
[34] = in vitro; details: human, plasma
[35] = in vivo; details: Sprague-Dawley, rat, po, 10 mg/kg; remark: listed apart in the source
[36] = biological target: Phosphatidylinositol 4,5-bisphosphate 3-kinase catalytic subunit gamma isoform (Homo sapiens, UniProt P48736)
[37] = in vitro; details: human, Caco-2
[38] = biological target: Phosphatidylinositol 4,5-bisphosphate 3-kinase catalytic subunit beta isoform (Homo sapiens, UniProt P42338)
[39] = in vivo; details: cynomolgus monkey, po, 10 mg/kg
[40] = in vivo; details: Sprague-Dawley, rat, po, 10 mg/kg; remark: listed apart in the source
[41] = in vivo; details: CD-1, mouse, po, 30 mg/kg; remark: listed apart in the source
[42] = physchem; details: Fasted State Simulated Intestinal Fluid
[43] = in vitro; details: rat, hepatocytes
[44] = in vitro; details: human, CCD-18Co cells

T1 sequence (P08684 whole entry): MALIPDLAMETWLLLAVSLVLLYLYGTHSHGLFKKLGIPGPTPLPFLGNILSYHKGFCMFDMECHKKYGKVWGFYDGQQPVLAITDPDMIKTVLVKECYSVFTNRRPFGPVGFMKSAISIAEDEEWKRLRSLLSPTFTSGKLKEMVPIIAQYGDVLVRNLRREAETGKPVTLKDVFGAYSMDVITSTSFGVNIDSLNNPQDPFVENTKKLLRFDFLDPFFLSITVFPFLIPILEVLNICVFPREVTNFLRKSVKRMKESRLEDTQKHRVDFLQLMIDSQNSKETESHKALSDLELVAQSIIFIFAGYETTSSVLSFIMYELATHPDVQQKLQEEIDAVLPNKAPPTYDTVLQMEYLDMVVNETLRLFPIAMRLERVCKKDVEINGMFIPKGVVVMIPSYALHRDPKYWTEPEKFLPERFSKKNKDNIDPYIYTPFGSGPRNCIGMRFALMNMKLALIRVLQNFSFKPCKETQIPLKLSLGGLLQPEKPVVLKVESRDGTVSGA
Chain of Phosphatidylinositol 4,5-bisphosphate 3-kinase catalytic subunit beta isoform (P42338 whole entry, canonical isoform): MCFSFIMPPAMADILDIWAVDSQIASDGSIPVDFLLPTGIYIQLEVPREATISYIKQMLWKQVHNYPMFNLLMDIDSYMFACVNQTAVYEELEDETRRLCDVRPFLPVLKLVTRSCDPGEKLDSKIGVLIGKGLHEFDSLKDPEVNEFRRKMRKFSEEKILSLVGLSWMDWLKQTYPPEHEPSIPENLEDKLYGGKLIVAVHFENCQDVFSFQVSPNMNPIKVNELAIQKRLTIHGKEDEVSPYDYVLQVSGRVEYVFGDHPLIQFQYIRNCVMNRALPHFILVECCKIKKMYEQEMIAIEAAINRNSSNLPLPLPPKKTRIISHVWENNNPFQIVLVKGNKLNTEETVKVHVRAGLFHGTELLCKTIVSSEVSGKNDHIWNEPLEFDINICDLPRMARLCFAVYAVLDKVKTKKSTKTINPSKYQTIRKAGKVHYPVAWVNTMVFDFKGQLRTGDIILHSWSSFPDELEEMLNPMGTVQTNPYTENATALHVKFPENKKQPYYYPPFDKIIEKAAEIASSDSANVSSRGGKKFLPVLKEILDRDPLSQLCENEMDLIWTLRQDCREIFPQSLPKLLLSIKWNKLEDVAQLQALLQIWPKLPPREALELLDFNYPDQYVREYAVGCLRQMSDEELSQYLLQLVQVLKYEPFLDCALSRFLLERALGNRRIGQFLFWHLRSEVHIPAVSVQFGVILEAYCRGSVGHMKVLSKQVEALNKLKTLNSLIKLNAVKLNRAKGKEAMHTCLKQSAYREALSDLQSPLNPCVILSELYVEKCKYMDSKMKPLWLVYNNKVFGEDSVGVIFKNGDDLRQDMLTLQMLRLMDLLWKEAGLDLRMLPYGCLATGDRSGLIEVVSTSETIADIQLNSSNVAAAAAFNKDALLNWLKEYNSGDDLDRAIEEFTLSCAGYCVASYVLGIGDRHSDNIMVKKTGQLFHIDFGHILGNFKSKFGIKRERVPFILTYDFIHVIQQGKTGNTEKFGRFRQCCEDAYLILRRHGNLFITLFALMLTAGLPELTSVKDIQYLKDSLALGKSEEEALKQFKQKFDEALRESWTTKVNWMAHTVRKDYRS
Chain of Phosphatidylinositol 4,5-bisphosphate 3-kinase catalytic subunit gamma isoform (P48736 whole entry, canonical isoform): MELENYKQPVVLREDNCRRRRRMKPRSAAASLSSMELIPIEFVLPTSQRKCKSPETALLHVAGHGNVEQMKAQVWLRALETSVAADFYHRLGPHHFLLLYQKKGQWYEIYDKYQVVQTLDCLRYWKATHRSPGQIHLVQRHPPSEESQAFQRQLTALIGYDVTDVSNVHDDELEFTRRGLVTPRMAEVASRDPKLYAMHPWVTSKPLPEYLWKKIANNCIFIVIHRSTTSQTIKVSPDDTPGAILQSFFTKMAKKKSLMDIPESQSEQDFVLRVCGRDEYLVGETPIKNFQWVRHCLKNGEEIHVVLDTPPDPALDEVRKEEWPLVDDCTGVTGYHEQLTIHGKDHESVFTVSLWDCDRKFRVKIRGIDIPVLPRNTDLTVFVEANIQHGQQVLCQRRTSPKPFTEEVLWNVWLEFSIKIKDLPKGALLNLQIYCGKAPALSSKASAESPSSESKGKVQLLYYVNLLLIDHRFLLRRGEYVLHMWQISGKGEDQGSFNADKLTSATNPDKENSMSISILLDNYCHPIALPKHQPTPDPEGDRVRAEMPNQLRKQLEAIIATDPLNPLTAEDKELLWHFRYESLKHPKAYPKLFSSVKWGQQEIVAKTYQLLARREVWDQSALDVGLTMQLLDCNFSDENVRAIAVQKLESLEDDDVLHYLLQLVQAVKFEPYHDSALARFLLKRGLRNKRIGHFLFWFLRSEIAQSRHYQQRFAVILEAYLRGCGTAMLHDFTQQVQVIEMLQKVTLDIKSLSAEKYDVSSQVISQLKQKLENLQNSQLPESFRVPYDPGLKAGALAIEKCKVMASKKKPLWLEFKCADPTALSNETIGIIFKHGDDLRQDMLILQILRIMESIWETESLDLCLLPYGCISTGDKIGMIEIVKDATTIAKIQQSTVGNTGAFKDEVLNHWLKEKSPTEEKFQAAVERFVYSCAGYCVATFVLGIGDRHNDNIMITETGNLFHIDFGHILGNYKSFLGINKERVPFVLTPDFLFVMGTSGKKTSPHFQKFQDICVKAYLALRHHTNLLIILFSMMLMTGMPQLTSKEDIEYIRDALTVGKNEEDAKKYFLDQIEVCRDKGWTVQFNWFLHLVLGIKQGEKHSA
Chain of Phosphatidylinositol 3-kinase catalytic subunit type 3 (Q8NEB9 whole entry): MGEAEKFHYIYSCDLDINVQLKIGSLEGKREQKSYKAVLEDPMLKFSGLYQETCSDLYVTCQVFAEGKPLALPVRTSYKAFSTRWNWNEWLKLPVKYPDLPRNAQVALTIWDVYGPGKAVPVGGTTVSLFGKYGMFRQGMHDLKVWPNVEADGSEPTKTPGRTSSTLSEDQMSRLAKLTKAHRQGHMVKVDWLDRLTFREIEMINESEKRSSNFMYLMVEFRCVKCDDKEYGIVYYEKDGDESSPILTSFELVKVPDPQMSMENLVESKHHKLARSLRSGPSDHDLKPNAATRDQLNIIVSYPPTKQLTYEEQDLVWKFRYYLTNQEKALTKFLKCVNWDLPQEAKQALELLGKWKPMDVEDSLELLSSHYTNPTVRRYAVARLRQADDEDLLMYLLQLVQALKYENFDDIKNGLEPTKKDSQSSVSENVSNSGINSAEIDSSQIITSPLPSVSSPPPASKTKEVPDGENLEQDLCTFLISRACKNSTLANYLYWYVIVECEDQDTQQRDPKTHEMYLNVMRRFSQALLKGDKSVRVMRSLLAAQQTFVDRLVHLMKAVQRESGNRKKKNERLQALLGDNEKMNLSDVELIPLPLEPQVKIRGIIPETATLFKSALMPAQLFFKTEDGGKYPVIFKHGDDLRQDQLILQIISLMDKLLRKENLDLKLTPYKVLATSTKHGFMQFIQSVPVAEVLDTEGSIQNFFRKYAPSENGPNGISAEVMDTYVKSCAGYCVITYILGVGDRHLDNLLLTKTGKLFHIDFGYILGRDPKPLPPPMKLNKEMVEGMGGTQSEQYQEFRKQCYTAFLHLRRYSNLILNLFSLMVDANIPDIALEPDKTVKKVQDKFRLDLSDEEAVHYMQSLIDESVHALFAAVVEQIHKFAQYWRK
Chain of CYP3A4 (P08684 whole entry): as the sequence (P08684 whole entry) above
Chain of Cytochrome P450 2D6 (P10635 whole entry): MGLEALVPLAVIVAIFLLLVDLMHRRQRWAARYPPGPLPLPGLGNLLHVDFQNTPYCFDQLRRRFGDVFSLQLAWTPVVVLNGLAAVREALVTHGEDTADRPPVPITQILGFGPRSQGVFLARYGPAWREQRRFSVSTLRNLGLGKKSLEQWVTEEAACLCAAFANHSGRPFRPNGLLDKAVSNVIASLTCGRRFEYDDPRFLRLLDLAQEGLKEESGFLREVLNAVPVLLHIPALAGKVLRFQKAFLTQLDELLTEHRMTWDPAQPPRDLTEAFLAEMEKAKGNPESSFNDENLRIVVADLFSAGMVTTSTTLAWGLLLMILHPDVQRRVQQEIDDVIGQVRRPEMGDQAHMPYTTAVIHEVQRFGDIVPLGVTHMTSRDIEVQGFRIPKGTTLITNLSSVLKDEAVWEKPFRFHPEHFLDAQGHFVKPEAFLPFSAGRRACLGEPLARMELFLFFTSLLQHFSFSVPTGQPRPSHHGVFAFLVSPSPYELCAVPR
Chain of Cytochrome P450 2C9 (P11712 whole entry): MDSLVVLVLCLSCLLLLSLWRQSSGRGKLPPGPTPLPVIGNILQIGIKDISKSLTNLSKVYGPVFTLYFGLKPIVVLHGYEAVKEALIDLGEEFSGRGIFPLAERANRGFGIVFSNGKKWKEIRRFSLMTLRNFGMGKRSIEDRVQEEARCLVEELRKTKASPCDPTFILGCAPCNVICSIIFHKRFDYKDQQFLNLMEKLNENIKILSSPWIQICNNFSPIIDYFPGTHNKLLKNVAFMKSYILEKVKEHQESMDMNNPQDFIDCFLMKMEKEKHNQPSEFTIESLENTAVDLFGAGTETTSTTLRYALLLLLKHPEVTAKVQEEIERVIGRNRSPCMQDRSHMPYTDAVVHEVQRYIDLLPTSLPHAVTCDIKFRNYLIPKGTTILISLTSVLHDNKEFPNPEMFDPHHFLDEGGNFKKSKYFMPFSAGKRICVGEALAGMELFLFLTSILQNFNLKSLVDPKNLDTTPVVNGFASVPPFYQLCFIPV

IC50 [1]: > 10 µM
CLint scaled at 0.75 h, 1 µM [2]: 2.3 mL/min/kg
EC50 [3]: 1.15 µM
IC50 [4]: > 10 µM
IC50 [6]: > 50 µM
inhibition at 0.5 h, 10 µM [7]: 0.96%
clearance [8]: 69 mL/min/kg
EC50 [9]: 0.448 µM
clearance [10]: 98 mL/min/kg
IC50 [11]: 8.38 µM
solubility thermodynamic [12]: 1500 µg/mL (≈ 3.86 mM)
CLint scaled [13]: 10 mL/min/kg
logD [14]: 1.62
Cmax [15]: 16.1 µM
IC50 [16]: > 10 µM
solubility thermodynamic [17]: > 5000 µg/mL
fraction unbound at 5 h, 5 µM [18]: 0.48
IC50 [19]: 0.968 µM
half-life [21]: 168 min
half-life [22]: 36 min
fraction unbound at 5 h, 5 µM [23]: 0.55
Tmax [24]: 15 min
Cmax [25]: 3.16 µM
Vd [26]: 3.6 L/kg
CLint scaled [27]: 8 mL/min/kg
Cmax [28]: 5.56 µM
half-life [29]: 186 min
IC50 [30]: > 10 µM
solubility thermodynamic [31]: > 13000 µg/mL
IC50 [32]: > 10 µM
Tmax [33]: 34.8 min
fraction unbound at 5 h, 5 µM [34]: 0.45
bioavailability [35]: 58%
IC50 [36]: > 50 µM
Papp A→B at 10 µM [37]: 17 ×10⁻⁶ cm/s
IC50 [38]: > 50 µM
Cmax [39]: 0.04 µM
Tmax [40]: 11.4 min
AUC(0-t) [41]: 25.3 µM·h
solubility thermodynamic [42]: 1600 µg/mL (≈ 4.12 mM)
CLint scaled [43]: 29 mL/min/kg
EC50 at 7 days [44]: 6.92 µM
Structure (SMILES): C[C@@H]1COCCN1c1cc(N=[S@@](C)(=O)C2CC2)nc(-c2ccnc(N)c2)n1
inhibition [5]: Active
inhibition in vivo at 30 mg/kg [20]: 72%

— ChEMBL document CHEMBL6087433, “Discovery of ART0380, a Potent and Selective ATR Kinase Inhibitor Undergoing Phase 2 Clinical Studies for the Treatment of Advanced or Metastatic Solid Cancers” (J Med Chem, 2024)
